Assay results from patent US9233964B2, “Sulfamide piperazine derivatives as protein tyrosine kinase inhibitors and pharmaceutical use therof” (LEO PHARMA A/S, priority 2011, dated 2016).

What was measured:
Format in all cases: biochemical
JAK2 = molecular target: T1, JAK2 (Homo sapiens, UniProt O60674); test: JAK kinase assay (HTRF, phosphorylation of synthetic peptide), JAK2; conditions: catalytic domain, ATP at Km (4 μM); read-out: JAK2 kinase inhibitory activity (EC50)
T1 construct: All four purified enzymes contain only the catalytic domain; His (N); purchased Carna Biosciences, Inc; host or cells: baculovirus expression system
T1 sequence (O60674 849-1124 limits assumed): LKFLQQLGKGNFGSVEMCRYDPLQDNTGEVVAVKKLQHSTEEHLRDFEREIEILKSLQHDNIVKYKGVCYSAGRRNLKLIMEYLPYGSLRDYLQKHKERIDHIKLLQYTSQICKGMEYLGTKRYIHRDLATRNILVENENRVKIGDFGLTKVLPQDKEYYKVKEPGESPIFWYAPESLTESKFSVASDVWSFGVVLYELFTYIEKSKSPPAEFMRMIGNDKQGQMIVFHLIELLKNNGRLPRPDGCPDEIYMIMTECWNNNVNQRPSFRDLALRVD
Description: (§1) Human baculovirus-expressed JAK1, 2, 3 and TYK2 were purchased from Carna Biosciences, Inc. All four purified enzymes contain only the catalytic domain. JAK1 (aa 850-1154) and TYK2 (aa 871-1187) are expressed with an N-terminally fused GST-tag, and JAK2 and JAK3 with an N-terminally fused His-tag.
(§2) Inhibition of phosphorylation of a synthetic peptide was measured in an HTRF-based assay using the TK substrate-Biotin from the Cisbio HTRFKinEASE TK kit. First, 2 μl of TK solution (TK substrate-biotin in kinase buffer [1× enzymatic buffer from HTRFKinEASE TK kit, 1 mM DTT]) is added to a plate containing 1 μl prediluted compound (final assay concentration DMSO: 0.75%). Then, 5 μl kinase-ATP mix (prepared in kinase buffer) is added to the wells and the plates are incubated at RT for 20-30 min. For all four kinases a concentration of ATP that corresponded to the Km for ATP was used. The final concentrations of buffers, substrate, kinase and ATP were: JAK1: 50 mM Hepes buffer pH 7.0, 0.01% BSA, 10 mM MgCl2, 1 mM DTT, 7 μM ATP, 50 nM SEB, 1 μM TK Substrate-Biotin and 5 ng JAK1; JAK2: 50 mM Hepes buffer pH 7.0, 0.01% BSA, 5 mM MgCl2, 1 mM DTT, 4 μM ATP, 1 μM TK Substrate-Biotin and 0.1 ng JAK2; JAK3: 50 mM Hepes buffer pH 7.0, 0.01% BSA, 5 mM MgCl2, 1 mM DTT, 2 μM ATP, 1 μM TK Substrate-Biotin and 0.3 ng JAK3; TYK2: 50 mM Hepes buffer pH 7.0, 0.01% BSA, 5 mM MgCl2, 1 mM DTT, 13 μM ATP, 50 nM SEB, 1 μM TK Substrate-Biotin and 0.8 ng TYK2. Thereafter, the kinase reaction is stopped by adding 4 μl detection mix (final concentrations: 50 mM Hepes buffer pH 7.0, 0.01% BSA, 0.8 M KF, 20 mM EDTA, 42 nM Streptavidin-XL665 and 1:400 STK Ab Cryptate) and the plates are incubated overnight in the dark. The HTRF signal is read using an Envision plate reader.

JAK3 = molecular target: T2, JAK3 (Homo sapiens, UniProt P52333); test: JAK kinase assay (HTRF, phosphorylation of synthetic peptide), JAK3; conditions: catalytic domain, ATP at Km (2 μM); read-out: JAK3 kinase inhibitory activity (EC50)
T2 construct: All four purified enzymes contain only the catalytic domain; His (N); purchased Carna Biosciences, Inc; host or cells: baculovirus expression system
T2 sequence (P52333 822-1111 limits assumed): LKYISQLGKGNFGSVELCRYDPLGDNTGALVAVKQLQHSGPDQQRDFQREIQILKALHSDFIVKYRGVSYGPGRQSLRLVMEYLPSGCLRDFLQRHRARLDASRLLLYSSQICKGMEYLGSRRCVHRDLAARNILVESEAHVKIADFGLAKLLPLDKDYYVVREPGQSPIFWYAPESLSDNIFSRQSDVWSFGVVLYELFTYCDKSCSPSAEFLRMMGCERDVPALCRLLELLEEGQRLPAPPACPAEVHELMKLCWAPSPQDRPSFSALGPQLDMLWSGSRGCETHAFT
Description: as §1, §2

TYK2 = molecular target: T3, TYK2 (Homo sapiens, UniProt P29597); test: JAK kinase assay (HTRF, phosphorylation of synthetic peptide), TYK2; conditions: catalytic domain, ATP at Km (13 μM); read-out: TYK2 kinase inhibitory activity (EC50)
T3 construct: JAK1 (aa 850-1154) and TYK2 (aa 871-1187) are expressed with an N-terminally fused GST-tag; GST (N); purchased Carna Biosciences, Inc; host or cells: baculovirus expression system
T3 sequence (P29597 871-1187): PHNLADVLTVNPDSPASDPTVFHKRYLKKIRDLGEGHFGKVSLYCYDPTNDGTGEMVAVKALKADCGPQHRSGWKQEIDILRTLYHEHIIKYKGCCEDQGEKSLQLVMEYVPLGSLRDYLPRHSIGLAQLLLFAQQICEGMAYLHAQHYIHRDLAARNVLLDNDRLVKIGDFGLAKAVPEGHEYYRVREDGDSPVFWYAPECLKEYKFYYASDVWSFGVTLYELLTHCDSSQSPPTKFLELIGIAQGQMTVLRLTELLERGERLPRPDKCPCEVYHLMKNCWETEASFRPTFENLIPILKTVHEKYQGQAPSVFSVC
Description: as §1, §2

JAK1 = molecular target: T4, JAK1 (Homo sapiens, UniProt P23458); test: JAK kinase assay (HTRF, phosphorylation of synthetic peptide), JAK1; conditions: catalytic domain, ATP at Km (7 μM); read-out: JAK1 kinase inhibitory activity (EC50)
T4 construct: JAK1 (aa 850-1154) and TYK2 (aa 871-1187) are expressed with an N-terminally fused GST-tag; GST (N); purchased Carna Biosciences, Inc; host or cells: baculovirus expression system
T4 sequence (P23458 850-1154): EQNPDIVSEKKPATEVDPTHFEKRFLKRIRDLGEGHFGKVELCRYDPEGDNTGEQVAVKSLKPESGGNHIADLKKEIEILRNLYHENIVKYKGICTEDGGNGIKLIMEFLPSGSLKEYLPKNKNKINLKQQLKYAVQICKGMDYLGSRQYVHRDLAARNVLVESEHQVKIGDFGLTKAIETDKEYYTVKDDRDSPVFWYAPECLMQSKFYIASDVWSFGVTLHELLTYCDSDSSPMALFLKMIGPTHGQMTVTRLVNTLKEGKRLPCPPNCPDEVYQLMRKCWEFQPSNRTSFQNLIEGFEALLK
Description: as §1, §2

EC50 (JAK2) [nM] | EC50 (JAK3) [nM] | EC50 (TYK2) [nM] | EC50 (JAK1) [nM] | Compound
< 100 | 100 to 500 | 100 to 500 | < 100 | CN(C(=O)CC1CCCC1)S(=O)(=O)N1CCN(c2ncnc3[nH]ccc23)CC12CC2 [Example 133, 2-cyclopentyl-N-methyl-N-[[5-(7H-pyrrolo[2,3-d]pyrimidin-4-yl)-5,8-diazaspiro[2.5]octan-8-yl]sulfonyl]acetamide]
< 100 | < 100 | < 100 | < 100 | CN(C[C@@H]1CC(F)(F)CN1S(C)(=O)=O)S(=O)(=O)N1CCN(c2ncnc3[nH]ccc23)CC12CC2 [Example 162, N-[[(2S)-4,4-difluoro-1-methylsulfonyl-pyrrolidin-2-yl]methyl]-N-methyl-5-(7H-pyrrolo[2,3-d]pyrimidin-4-yl)-5,8-diazaspiro[2.5]octane-8-sulfonamide]
< 100 | < 100 | 100 to 500 | < 100 | CN(C[C@@H]1CCCN1S(C)(=O)=O)S(=O)(=O)N1CCN(c2ncnc3[nH]ccc23)CC12CC2 [Example 194, N-methyl-N-[[(2S)-1-methylsulfonylpyrrolidin-2-yl]methyl]-5-(7H-pyrrolo[2,3-d]pyrimidin-4-yl)-5,8-diazaspiro[2.5]octane-8-sulfonamide]
100 to 500 | > 500 | > 500 | < 100 | CN(C(=O)CCC1CCCC1)S(=O)(=O)N1CCN(c2ncnc3[nH]ccc23)CC12CC2 [Example 134, 3-cyclopentyl-N-methyl-N-[[5-(7H-pyrrolo[2,3-d]pyrimidin-4-yl)-5,8-diazaspiro[2.5]octan-8-yl]sulfonyl]propanamide]
< 100 | < 100 | 100 to 500 | < 100 | CN(C1CN(C(=O)CO)C1)S(=O)(=O)N1CCN(c2ncnc3[nH]ccc23)CC12CC2 [Example 178, N-[1-(2-hydroxyacetyl)azetidin-3-yl]-N-methyl-5-(7H-pyrrolo[2,3-d]pyrimidin-4-yl)-5,8-diazaspiro[2.5]octane-8-sulfonamide]
< 100 | < 100 | 100 to 500 | < 100 | CN(CC1CCN(S(C)(=O)=O)CC1)S(=O)(=O)N1CCN(c2ncnc3[nH]ccc23)CC12CC2 [Example 158, N-methyl-N-[(1-methylsulfonyl-4-piperidyl)methyl]-5-(7H-pyrrolo[2,3-d]pyrimidin-4-yl)-5,8-diazaspiro[2.5]octane-8-sulfonamide]
< 100 | 100 to 500 | 100 to 500 | < 100 | O=S(=O)(NCc1ccccc1)N1CCN(c2ncnc3[nH]ccc23)CC12CC2 [Example 147, N-benzyl-5-(7H-pyrrolo[2,3-d]pyrimidin-4-yl)-5,8-diazaspiro[2.5]octane-8-sulfonamide]
< 100 | 100 to 500 | 100 to 500 | 100 to 500 | CC(C)NS(=O)(=O)N1CCN(c2ncnc3[nH]ccc23)CC12CC2 [Example 50, 7-(7H-Pyrrolo[2,3-d]pyrimidin-4-yl)-4,7-diaza-spiro[2.5]octane-4-sulfonic acid isopropylamide]
< 100 | 100 to 500 | > 500 | < 100 | CC(C)N(CC#N)S(=O)(=O)N1CCN(c2ncnc3[nH]ccc23)CC12CC2 [Example 96, N-(cyanomethyl)-N-isopropyl-5-(7H-pyrrolo[2,3-d]pyrimidin-4-yl)-5,8-diazaspiro[2.5]octane-8-sulfonamide]
< 100 | 100 to 500 | > 500 | < 100 | CN(C(=O)CCC1CCS(=O)(=O)C1)S(=O)(=O)N1CCN(c2ncnc3[nH]ccc23)CC12CC2 (stereo not shown) [Example 137, 3-(1,1-dioxothiolan-3-yl)-N-methyl-N-[[5-(7H-pyrrolo[2,3-d]pyrimidin-4-yl)-5,8-diazaspiro[2.5]octan-8-yl]sulfonyl]propanamide]
